Data reported in US8492521B2, “Oxidative stress responsive apoptosis inducing protein eIF5A” (priority 2008, dated 2013).

How the values were obtained:
[1] = tested on: rat myocardial ischemia/reperfusion injury; test: Rat myocardial ischemia/reperfusion injury, extent of myocardial infarction (TTC staining); assay type: in vivo; conditions: 1 mg/kg everyday, peritoneal, five days to the day before; 30 min ischemia, 24 hours reperfusion; control group approx. 35.6%
Description: Rats (male, 250 to 280 g) were subjected to coronary artery ligation according to J. Pathol. 180, 305-310 (1996). Briefly, rats were anesthetized with sodium pentobarbital (40 mg Kg^−1, intraperitoneally), intubated, and ventilated with room air (tidal volume, 20 ml/Kg, […]) with a respirator (SN-480-7, Shinano Manufacturing Co., Ltd., Tokyo, Japan). After lateral thoracotomy and pericardiectomy, a 6-0 silk stitch was placed near the intramyocardial location of the left coronary artery beneath the left atrial appendage. Coronary artery occlusion was performed by pressing a short length of tube over the ends of the suture and clamping it firmly against the heart. Reperfusion was achieved by removing the clamp. The standard limb lead II electrocardiogram was monitored continuously. The ischemia and reperfusion of the regional myocardium were confirmed by following the changes of the ST segment level on the electrocardiogram and observing the change in the color of the myocardium.
eIF5A is deoxyhypusinated by deoxyhypusine synthase (DHS) in the cytoplasm (deoxyhypusine eIF5A) and then hypusinated by deoxyhypusine hydroxylase (DOHH) (hypusinated eIF5A). eIF5A is further secreted extracellularly by an oxidative stress stimulus as secreted eIF5A and acquire the apoptosis-inducing activity. […]

[2] = tested on: human hepatocellular carcinoma cells (ATCC; HB-8064); test: Apoptosis induction by recombinant eIF5A (TUNEL), hepatocellular carcinoma cells; assay type: cell-based; conditions: 10 μg/ml, 30 to 36 hours
Description: (§1) Quail muscle cells (ATCC; CRL-1962), HeLa cells, human hepatocellular carcinoma cells (ATCC; HB-8064), and human glioblastoma cells (ATCC; CRL-1690) were incubated on a culture slide (BD Falcon) until they were confluent. These cells were treated with a recombinant eIF5A (10 μg/ml) for a predetermined time and fixed. Terminal deoxynucleotidyl transferase nick-end-labeled (TUNEL) staining was performed in situ with an Apoptosis Detection Kit (Takara Bio Inc.).

[3] = tested on: cultured cardiac myocytes; test: Subcellular translocation of apoptosis-inducing factor (AIF) in cultured cardiac myocytes; assay type: cell-based, rat; conditions: double staining for AIF and Hoechst 33342
Description: Tyramide Signal Amplification (TSA) technology was used for fluorescence (TSA™ Biotin System, NEN Life Science Products, PerkinElmer; according to the manufacture's instruction). Cardiac myocytes were treated with a recombinant eIF5A (RCP) for a predetermined time and fixed with 4% paraformaldehyde in PBS for 15 min. The cells were washed with PBS and then incubated with rabbit anti-AIF mAb (E20; Epitomics Inc.) for 1 hour. The cells were washed, then incubated with biotinylated anti-rabbit IgG antibody (Chemicon International, Inc.) for 1 hour, washed, and incubated with streptavidin-horseradish peroxidase (Vector) for 30 min. The cells were washed in TNT buffer (0.1 M Tris-HCl, pH 7.5, 0.15 M NaCl, 0.05% Tween 20) and then incubated with biotinylated-tyramide for appropriate time (3 to 10 min). The cells were washed in TNT buffer and then incubated with FITC-labeled avidin-D (Vector) for 30 min. Nuclei were stained with 1 μg·mL^−1 Hoechst 33342 (DOJINDO Laboratories, Kumamoto, Japan). Confocal laser microscopy was performed on LSM510 Laser Scanning Microscope (Zeiss).

[4] = tested on: cultured cardiac myocytes; test: Induction of apoptosis of cultured cardiac myocytes by recombinant eIF5A proteins (TUNEL / cardiac myosin double staining); assay type: cell-based, rat; conditions: recombinant protein 10 μg/mL
[5] = tested on: cultured cardiac myocytes; test: Activation of caspase-3 (Western blot); assay type: cell-based, rat; conditions: peak at 48 hours
[6] = tested on: Hela cells; test: Apoptosis induction by recombinant eIF5A (TUNEL), HeLa cells; assay type: cell-based, human; conditions: 10 μg/ml, 30 to 36 hours
Description: as §1

[7] = tested on: Quail muscle cells (ATCC; CRL-1962); test: Apoptosis induction by recombinant eIF5A (TUNEL), quail muscle cells; assay type: cell-based; conditions: 10 μg/ml, normal cells, up to 72 hours
Description: as §1

[8] = tested on: cultured cardiac myocytes; test: Annexin V staining of cultured cardiac myocytes; assay type: cell-based, rat
Description: Cardiac myocytes were treated with a recombinant eIF5A (RCP) for a predetermined time. The cells were incubated with biotinylated-annexin V in 1× binding buffer (Annexin V-Biotin Apoptosis Detection Kit, BioVision Inc.) for 5 min and then fixed with 2% paraformaldehyde in PBS for 15 min. After washing in PBS, the cells were incubated with streptavidin-horseradish peroxidase (Vector) for 30 min. The subsequent procedures for immunofluorescence by TSA technology were the same as for AIF. To distinguish cardiac myocytes from non-muscle cells, cells were further incubated with mouse anti-cardiac myosin (clone CMA19) mAb (Non Patent Literature 1), followed by incubation with tetramethyl rhodamine isothiocyanate (TRITC)-conjugated anti-mouse IgG antibody, and then photographed in a fluorescence microscope.

[9] = tested on: cultured cardiac myocytes; test: Release of cytochrome c from mitochondria (Western blot of cytosolic fraction); assay type: cell-based, rat; conditions: peak at 48 hours
Description: Cultured cardiac myocytes were treated with a recombinant eIF5A for a predetermined time. Nucleic, mitochondrial, and cytosolic fraction of the cells were prepared as described in Non Patent Literatures 1 and 2. Briefly, 3×10^6 cells were washed in PBS, and suspended in 250 μl of a lysis buffer (250 mM sucrose, 50 mM Pipes/KOH, pH7.4, 50 mM KCl, 5 mM EGTA, 2 mM MgCl2, 1 mM DTT, and 1 mM PMSF). After 30 min on ice, the cells were lysed with 40 strokes using pestle B in a Dounce homogenizer, and centrifuged at 80 g for 10 min. The pellets were collected as the nucleic fraction. Then, the supernatants were prepared from cell lysates by centrifugation at 20,000 g for 20 min. The pellets were collected as the mitochondrial fraction, and the supernatants were regarded as the cytosolic fraction. The nucleic, mitochondrial, and cytosolic fractions were subjected to Western blot analysis with rabbit anti-AIF mAb (E20; Epitomics Inc., CA, USA) or mouse anti-cytochrome c mAb (7H, 8.2; C12; Lab Vision Corp., CA, USA). The antibody-antigen complexes were developed with a chemiluminescence system using alkalinephosphatase (New England Biolabs, Inc.).

[10] = tested on: human glioblastoma cells (ATCC; CRL-1690); test: Apoptosis induction by recombinant eIF5A (TUNEL), glioblastoma cells; assay type: cell-based; conditions: 10 μg/ml, 30 to 36 hours
Description: as §1

[11] = tested on: cardiac myocytes; test: Electron microscopy of nuclear chromatin in cardiac myocytes; assay type: cell-based, rat
Description: The cardiac myocytes were treated with recombinant eIF5A for a predetermined period. The cells were fixed in 2% glutaraldehyde, postfixed in 2% osmium tetraoxide, dehydrated in ethanol, and embedded in a resin. Ultrathin section were prepared, stained with uranyl acetate and lead citrate, and examined with an electron microscope (H-7000, HITACHI, Japan).

Compound | extent of myocardial infarction [1] | induction of apoptosis (TUNEL staining) [2] | translocation of the apoptosis-inducing factor (AIF) from the cytosol (mitochondria) to the nucleus [3] | induction of apoptosis of cultured cardiac myocytes (TUNEL and cardiac myosin double staining) [4] | active form of caspase-3 [5] | induction of apoptosis (TUNEL staining) [6] | induction of apoptosis (TUNEL staining) [7] | induction of apoptosis by Annexin-V staining [8] | cytosolic fractions of cytochrome c [9] | induction of apoptosis (TUNEL staining) [10] | nuclear chromatin by electron microscopy [11]
N=C(N)NCCCCCCCN [GC7, N1-guanyl-1,7-diaminoheptane] | approx. 13.4% | – | – | – | – | – | – | – | – | – | –
recombinant eIF5A (RCP): FLAG- and His-tagged human eIF5A collected from reoxygenation-conditioned PBS of transfected quail muscle cells; secreted form | – | induced apoptosis | induced translocation | potently induced apoptosis | markedly increased | induced apoptosis | not induced until 72 hours | further confirmed | markedly increased | induced apoptosis | hypercondensation of nuclear chromatins
